Experiment [1] has as its system MCF7. Briefly: Promotion of cell proliferation in human MCF7 cells. It counts as functional, cell-based.
Experiment [2] addresses T1, Estrogen receptor (Homo sapiens, UniProt P03372).
T1 sequence (P03372 whole entry): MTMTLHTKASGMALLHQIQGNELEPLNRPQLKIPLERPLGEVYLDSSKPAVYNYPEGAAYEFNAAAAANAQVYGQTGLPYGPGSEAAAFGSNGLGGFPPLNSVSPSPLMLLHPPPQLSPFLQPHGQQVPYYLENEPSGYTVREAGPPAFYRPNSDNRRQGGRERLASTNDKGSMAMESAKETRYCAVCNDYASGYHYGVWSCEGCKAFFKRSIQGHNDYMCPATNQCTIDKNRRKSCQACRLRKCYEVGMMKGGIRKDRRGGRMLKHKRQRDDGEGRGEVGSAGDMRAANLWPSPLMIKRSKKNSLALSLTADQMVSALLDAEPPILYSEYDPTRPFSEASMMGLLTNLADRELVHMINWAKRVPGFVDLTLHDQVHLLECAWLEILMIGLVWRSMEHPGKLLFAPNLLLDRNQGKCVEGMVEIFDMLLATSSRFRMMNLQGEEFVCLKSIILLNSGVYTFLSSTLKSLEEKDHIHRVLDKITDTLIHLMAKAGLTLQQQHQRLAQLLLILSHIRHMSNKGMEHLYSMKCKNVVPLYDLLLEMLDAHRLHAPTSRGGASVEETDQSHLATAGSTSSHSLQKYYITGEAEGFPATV
The experiment in a line: Agonist activity at human ERalpha expressed in african green monkey CV1 cells by luciferase reporter gene assay relative to 17beta estradiol. It is filed as functional, cell-based, CV-1.

The test system of experiment [3] is HL-60. Briefly: Antiproliferative effect against human HL60 cells after 69 hrs. It counts as functional, cell-based. The settings on record: HL-60, 69 h.
The test system of experiment [4] is HL-60. The experiment in a line: Growth inhibition of human HL60 cells at 20 uM after 69 hrs. It counts as functional. Particulars: HL-60, 69 h, read-out: GI.
The subject of experiment [5] is MCF7. The experiment in a line: Growth inhibition of human MCF7 cells at 20 uM after 72 hrs by MTT assay. It counts as functional. Particulars: MCF7, 72 h, read-out: GI. (Tetrazolium dyes change colour on reduction, which living cells bring about.)
Experiment [6] relates to HeLa. The experiment in a line: Growth inhibition of human HeLa cells at 20 uM after 69 hrs by MTT assay. It counts as functional. Particulars: read-out: GI.
The test system of experiment [7] is MCF7. The experiment in a line: Antiproliferative effect against human MCF7 cells after 72 hrs by MTT assay. Particulars: MCF7, 72 h. It counts as functional, cell-based.
The subject of experiment [8] is HeLa. The experiment in a line: Antiproliferative effect against human HeLa cells after 69 hrs by MTT assay. It is filed as functional, cell-based.

Usually EC50 stands for the concentration at which the effect is half-maximal. Take `COc1cc([C@H]2O[C@@H](c3cc(OC)c4c(c3)OCO4)[C@@H](CO)[C@@H]2COC(C)=O)cc2c1OCO2`: the figures for the EC50 in experiment [1] and in experiment [2] were 0.142 µM and 3.1 µM, respectively.
As usually defined, the IC50 is the concentration that gives 50% inhibition. In turn, `COc1cc(C(c2cc(OC)c3c(c2)OCO3)[C@@H]2COC(=O)[C@H]2C)cc(O)c1OC` (relative stereo) gave an IC50 in experiment [3] of 10.8 µM. Besides, the inhibition of growth at 20 µM in experiment [4] came to 92%; in experiment [5] it was 53.2%; in experiment [6], 10%.
Consider `COc1cc(C(c2cc(OC)c3c(c2)OCO3)[C@@H]2COC(=O)[C@H]2C)cc2c1OCO2` [PEPEROMIN A], for which the inhibition of growth at 20 µM in experiment [4] is 17%; in experiment [5], 27.7%; in experiment [6], under 5%.
As to `C=C1C(=O)OC[C@H]1C(c1cc(OC)c2c(c1)OCO2)c1cc(OC)c2c(c1)OCO2` [PEPEROMIN E], the figures for the IC50 in experiment [3], in experiment [7] and in experiment [8] were 1.8 µM, 3.9 µM and 11.1 µM, respectively. Also, the inhibition of growth at 20 µM in experiment [4] is 93%; in experiment [5], 90.7%; in experiment [6] it was 95%.
Consider `C=C1C(=O)OCC1C(c1cc(OC)c(OC)c(OC)c1)c1cc(OC)c2c(c1)OCO2` (stereo not given), for which the results for the IC50 in experiment [3], in experiment [7] and in experiment [8] were 1.4 µM, 3.8 µM and 9.1 µM, respectively. The inhibition of growth at 20 µM in experiment [4] amounted to 92%; in experiment [5], 91%; in experiment [6], 96%.
For the molecule `COc1cc([C@@H]2c3cc4c(cc3[C@@H](O[C@@H]3O[C@@H]5CO[C@@H](C)O[C@H]5[C@H](O)[C@H]3O)[C@H]3COC(=O)[C@H]23)OCO4)cc(OC)c1O` [ETOPOSIDE], the IC50 was 0.21 µM in experiment [3], 0.19 µM in experiment [7] and 3.6 µM in experiment [8]. Besides, the inhibition of growth at 20 µM in experiment [4] worked out at 93.5%; in experiment [5], 73.5%; in experiment [6], 85.3%.
As for `COc1cc(OC)c(C2CCC(=O)c3c(OC)cc(OC)c(OC)c32)cc1OC` (stereo not given), the inhibition of growth at 20 µM in experiment [4] is under 5%; in experiment [5], 37.6%; in experiment [6], under 5%.
